In article PMC12326358, “Effect of Quantitative Structural Properties and Drug Formulation in Four Cannabinoids (Cannabidiol, Cannabigerol, Cannabichromene, and Cannabinol) on Their Lymphatic Transport after Enteral Administration in Rats” (Molecular Pharmaceutics, 2025):
Values joined by “and” are separate entries in the source; they are usually repeats but may differ in a detail not shown here. Equal entries are not always repeated. “Also recorded” adds a separate entry of the source.

Experiments:
[1] = Pharmacokinetic studies (oral and intravenous dosing) in jugular vein cannulated rats; conditions: for AUC(0-inf): AUC0-inf; for bioavailability: F0-inf (absolute oral bioavailability)
Procedure: Absolute oral bioavailability and other pharmacokinetic parameters were determined in a series of two-period, crossover studies, where the cannabinoids were administered intravenously in the first period, and orally in the second. Both jugular veins were cannulated (3 Fr polyurethane catheter, Instech Laboratories, Plymouth Meeting, USA). One catheter was used for intravenous dosing, and the second one was used for repetitive blood sampling in order to avoid sampling cannula contamination with highly concentrated intravenous drug solution. The anesthesia was performed using a rapid inhalational induction with isoflurane (IsoFlo, Zoetis, Czech Republic) followed by intramuscular injection of ketamine 100 mg/kg (Narkamon, Bioveta a.s., Czech Republic) and xylazine 5 mg/kg (Rometar, Bioveta a.s., Czech Republic). After a three-day recovery period, the rats were intravenously dosed with the particular cannabinoid (1 mg of CBD, 1.5 mg of the other three cannabinoids in the form of nanoemulsion, volume 100 μL). Systemic blood (100 μL) was drawn at 5, 15, and 30 min and at 1, 2, 4, 6, 8, 10, and 24 h(s) postdose. After a two-day wash-out period, the dosing via oral gavage followed (10 mg of CBD, 15 mg of the other three cannabinoids in the form of nanoemulsion, volume 1 mL). Systemic blood (100 μL) was drawn at 0 (predose), 0.5, 1, 2, 3, 4, 5, 6, 8, 10, and 24 h(s). Blood samples were centrifuged (4500 rpm for 10 min) and serum was extracted and stored in −80 °C until analysis. The laboratory was unaware of animal assignment to particular experimental groups (laboratory blinding).
(§1) Serum and lymph concentrations in all studies were dose-normalized to 1 mg/kg prior to further calculations. AUC values were determined using linear trapezoidal rule. Exact actual sampling times were used for this purpose. Scheduled sampling times were used for mean concentration plotting in the graphs. PK-solver add-on for MS Excel was used for all basic pharmacokinetic calculations. GraphPad Prism version 10.2.2 (GraphPad Software, San Diego, CA, USA) was used for all statistical analyses and graph plotting. Unpaired Student’s t test was used to compare pharmacokinetic and lymphatic transport parameters between the experimental groups. Level of significance was set to p < 0.05.
(§2) Lymphatic transport parameters were defined and calculated as previously described. , Briefly, absolute bioavailability via lymph (FAL) was defined as percentage of administered drug dose absorbed into the lymph. It was determined directly from lymph volume and drug concentration in lymph duct cannulated rats. Absolute bioavailability via portal vein (FAP) was analogically defined as percentage of administered drug dose reaching the systemic circulation after direct absorption into blood. It was calculated using equation 1 FAP=AUCent/AUCiv where AUCent is the area under the dose-normalized blood concentration–time curve after enteral dosing in lymph duct cannulated (i.e., lymph deprived) rats and AUCiv is the respective parameter in a separate intravenously dosed group. Total absolute bioavailability (F) in lymph duct cannulated rats was calculated as a sum of FAL and FAP. In normal animals with no lymph duct cannulation, F was calculated using standard formula for oral bioavailability: 2 F=AUCpo/AUCiv Relative bioavailability via lymph (FRL) was defined as the percentage of systemically available drug that was absorbed via lymph. It was calculated using the equation 3 FRL=FAL/F

[2] = Lymphatic transport studies in anesthetized mesenteric lymph duct cannulated rats; conditions: for FRL, relative bioavailability via lymph / bioavailability / Kp: intraduodenal, mean ± SD; for FRL, relative bioavailability via lymph: FRL=FAL/F; for bioavailability: F, total absolute bioavailability, sum of FAL and FAP; for Kp: Lymph/serum AUC ratio
Procedure: Anesthetized mesenteric lymph duct cannulated rat model was used for the lymphatic transport measurement as previously described with slight modifications. Briefly, rats were left on normal diet and given 1 mL of olive oil 1 h prior to the surgery to visualize the mesenteric lymph (milky white color). They were anesthetized with intramuscular xylazine 5 mg/kg and ketamine 100 mg/kg after a rapid isoflurane induction. A transverse laparotomy was performed. […] The catheter was fixed in place with two to three drops of tissue adhesive (Histoacryl, B. Braun Surgical, S.A., Spain). A duodenal catheter was also placed (polyethylene, 0.97 mm O.D., 0.58 mm I.D.) via a small duodenotomy and fixed with tissue adhesive. The abdominal wall was sutured in two layers, with both catheters leaving the abdominal cavity through the right flank. At the end of the procedure, the right jugular vein was cannulated for blood sampling.
The rats were then placed on heated pads and covered with blankets to prevent heat loss. Cannabinoids in oil solution or nanoemulsion were then dosed slowly via duodenal catheter over 30 min. The administered dose was 10 mg of CBD and 15 mg of CBG, CBC and CBN (volume 1 mL). Whole lymph was collected in regularly changed Eppendorf tubes from the time the dosing started. When the dosing was finished, continuous hydration with normal saline at a rate of 3 mL/h intraduodenally followed using an infusion pump (Perfusor compactplus, B. Braun Melsungen AG, Germany). Anesthesia was maintained throughout the rest of the experiment and additional ketamine intramuscular boluses were given whenever necessary. Eppendorf tubes were changed hourly and systemic blood was drawn at the same time points. Blood samples were centrifuged (4500 rpm for 10 min) and serum was extracted. Lymph volume was measured gravimetrically and the samples were further processed without additional adjustment. All samples were stored in −80 °C until analysis. Laboratory was unaware of animal assignment to the particular experimental groups (laboratory blinding).
as §1, §2

[3] = rat, in vivo, iv, 1.5 mg, nanoemulsion, rats, serum, dose-normalized to 1 mg/kg, mean ± SD
[4] = rat, in vivo, iv, 1.5 mg, T1/2, nanoemulsion, rats, mean ± SD
[5] = rat, in vivo, po, nanoemulsion, rats, serum, dose-normalized to 1 mg/kg, mean ± SD
[6] = rat, in vivo, po, oil solution, rats, serum, dose-normalized to 1 mg/kg, mean ± SD
[7] = rat, in vivo, po, nanoemulsion, rats, 10 mg CBD, 15 mg others, serum, dose-normalized to 1 mg/kg, mean ± SD
[8] = rat, in vivo, po, oil solution, rats, 10 mg CBD, 15 mg other cannabinoids, serum, dose-normalized to 1 mg/kg, mean ± SD
[9] = rat, in vivo, po, nanoemulsion, rats, mean ± SD
[10] = rat, in vivo, po, oil solution, rats, mean ± SD
[11] = rat, in vivo, po, T1/2, nanoemulsion, rats, mean ± SD
[12] = rat, in vivo, po, T1/2, oil solution, rats, mean ± SD
[13] = nanoemulsion compared to oil solution, lymph duct-cannulated rats
[14] = nanoemulsion, lymph duct-cannulated rats
[15] = oil solution, lymph duct-cannulated rats
[16] = rat, in vivo, nanoemulsion, lymph duct-cannulated rats
[17] = rat, in vivo, oil solution, lymph duct-cannulated rats

Row | Structure (SMILES) | Vd ([1]; rat, in vivo, iv, 1.5 mg) | clearance ([1]; rat, in vivo, iv, 1.5 mg) | AUC(0-inf) [1, 5] | AUC(0-inf) [1, 6] | Cmax [1, 8] | bioavailability [1, 9] | bioavailability [1, 10] | half-life [1, 11] | half-life [1, 12] | Tmax [1, 9] | Tmax [1, 10] | drop of relative bioavailability via lymph (FRL) [2, 13] | increase in absolute bioavailability via lymph (FAL) [2, 13] | increase in absolute bioavailability via portal vein (FAP) [2, 13] | FRL, relative bioavailability via lymph [2, 14] | FRL, relative bioavailability via lymph [2, 15] | bioavailability [2, 16] | bioavailability [2, 17] | Kp [2, 16] | Kp [2, 17] | further results
1 | CCCCCc1cc(O)c2c(c1)OC(C)(CCC=C(C)C)C=C2 (stereo not drawn) [CBC, cannabichromene] | 11 ± 2.2 L/kg | 100 mL/min/kg | 117 ± 33 ng·h/mL | 31 ± 23 ng·h/mL | 2.6 ± 1.5 ng/mL | 18 ± 5% | 34 ± 18% | 5.8 ± 1.9 h | 13 ± 19 h | 3.6 ± 1.9 h | 6 ± 1.3 h | did not reach statistical significance | 3 fold | 8 fold | 47% and 47 ± 14% | 63 ± 17% | 29 ± 7% | 6.6 ± 3.9% | 530 ± 239 | 1260 ± 676 | AUC(0-inf) [1, 3]: 640 ± 85 ng·h/mL; Cmax [1, 3]: 935 ± 147 ng/mL; half-life [1, 4]: 2.2 ± 0.4 h; Cmax [1, 7]: 12 ± 2 ng/mL
2 | C=C(C)[C@@H]1CCC(C)=C[C@H]1c1c(O)cc(CCCCC)cc1O [CBD, cannabidiol] |  |  | 256 ± 38 ng·h/mL | 205 ± 57 ng·h/mL | 27 ± 10 ng/mL | 45 ± 18% | 52 ± 19% | 4.4 ± 0.8 h | 4.8 ± 0.8 h | 3.2 ± 0.9 h | 6.8 ± 1.9 h | 74% | did not increase; also recorded: no increase | 11 fold | 13% and 13 ± 8 % | 50 ± 12% | 24 ± 9% | 4 ± 1.5% | 100 ± 60 | 699 ± 333 | 
3 | CCCCCc1cc(O)c(C/C=C(\C)CCC=C(C)C)c(O)c1 [CBG, cannabigerol] | 7.3 ± 2.3 L/kg | 98.3 mL/min/kg |  |  |  |  |  |  |  |  |  |  |  |  |  |  |  |  |  |  | AUC(0-inf) ([1]; rat, in vivo, iv, 1.5 mg): 716 ± 136 ng·h/mL; Cmax ([1]; rat, in vivo, iv, 1.5 mg): 1190 ± 286 ng/mL; half-life ([1]; rat, in vivo, iv, 1.5 mg, T1/2): 2.5 ± 1.6 h; T1/2 ([1]; rat, in vivo, po): 5.1 ± 4.1 h; half-life ([1]; rat, in vivo, po, T1/2): 3.1 ± 1.3 h; drop of relative bioavailability via lymph (FRL) ([2]; rat, in vivo): 75%; increase in absolute bioavailability via lymph (FAL) ([2]; rat, in vivo): 8 fold; increase in absolute bioavailability via portal vein (FAP) ([2]; rat, in vivo): 71 fold
4 | CCCCCc1cc(O)c2c(c1)OC(C)(C)c1ccc(C)cc1-2 [CBN, cannabinol] | 6.5 ± 1.6 L/kg | 50 mL/min/kg | 91 ± 19 ng·h/mL | 148 ± 57 ng·h/mL | 15.3 ± 4.6 ng/mL | 9% | 20 ± 7% | 3.5 ± 1.1 h | 4.2 ± 1.7 h | 2.2 ± 0.6 h | 6.5 ± 1.2 h | 48% | 3 fold | 13 fold | 36% and 36 ± 20 % | 69 ± 13% | 29 ± 10% | 5.3 ± 2% | 274 ± 231 | 976 ± 519 | T1/2 ([1]; nanoemulsion, IV, rats, 1.5 mg, mean ± SD): 5.3 ± 1.8 h; F0-inf (absolute oral bioavailability) ([1]; nanoemulsion, PO, rats, mean ± SD): 9.2 ± 2.6%; AUC(0-inf) [1, 3]: 1040 ± 212 ng·h/mL; Cmax [1, 3]: 1230 ± 252 ng/mL; half-life [1, 4]: 5 h; Cmax [1, 7]: 12 ± 3 ng/mL
